Kd data for 22 compounds are collected here from ChEMBL document CHEMBL3991601, “The target landscape of clinical kinase drugs” (Science, 2017).

The source made the active and inactive calls.

Usually Kd stands for a measure of binding affinity in units of concentration.

Experiment [1] addresses Cyclin-dependent kinase 17 (Homo sapiens, UniProt Q00537).
Experiment [2] deals with T1, Long-chain-fatty-acid--CoA ligase 5 (Homo sapiens, UniProt Q9ULC5).
T1 sequence (Q9ULC5 whole entry): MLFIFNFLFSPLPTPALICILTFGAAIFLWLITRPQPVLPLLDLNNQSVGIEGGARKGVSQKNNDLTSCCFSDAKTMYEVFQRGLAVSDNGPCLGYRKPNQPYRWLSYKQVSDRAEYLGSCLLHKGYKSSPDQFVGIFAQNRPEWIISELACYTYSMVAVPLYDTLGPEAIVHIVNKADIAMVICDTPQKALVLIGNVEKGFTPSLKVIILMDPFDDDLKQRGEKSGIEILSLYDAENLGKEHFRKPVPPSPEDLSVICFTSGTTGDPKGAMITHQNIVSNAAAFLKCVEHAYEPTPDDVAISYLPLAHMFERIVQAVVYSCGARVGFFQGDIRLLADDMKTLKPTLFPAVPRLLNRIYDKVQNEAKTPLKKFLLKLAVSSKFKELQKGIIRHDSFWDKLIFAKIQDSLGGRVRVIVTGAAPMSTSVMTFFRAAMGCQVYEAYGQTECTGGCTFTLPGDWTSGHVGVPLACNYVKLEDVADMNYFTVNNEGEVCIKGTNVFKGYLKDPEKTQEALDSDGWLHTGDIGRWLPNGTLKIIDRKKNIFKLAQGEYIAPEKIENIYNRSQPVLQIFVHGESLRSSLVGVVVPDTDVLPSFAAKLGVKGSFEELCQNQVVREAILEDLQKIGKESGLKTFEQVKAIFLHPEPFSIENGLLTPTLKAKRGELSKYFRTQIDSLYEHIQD

Experiment [3] has as its target PAS domain-containing serine/threonine-protein kinase (Homo sapiens, UniProt Q96RG2).
In experiment [4] the target is Dual specificity testis-specific protein kinase 2 (Homo sapiens, UniProt Q96S53).
Experiment [5] deals with Proto-oncogene tyrosine-protein kinase receptor Ret (Homo sapiens, UniProt P07949).
Experiment [6] has as its target T2, UMP-CMP kinase (Homo sapiens, UniProt P30085).
T2 sequence (P30085 whole entry): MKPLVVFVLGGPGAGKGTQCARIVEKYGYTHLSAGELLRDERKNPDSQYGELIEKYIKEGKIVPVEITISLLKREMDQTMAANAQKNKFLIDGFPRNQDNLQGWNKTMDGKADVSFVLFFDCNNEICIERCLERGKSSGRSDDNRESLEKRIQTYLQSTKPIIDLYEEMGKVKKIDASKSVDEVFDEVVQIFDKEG

For experiment [7], the target named is G protein-coupled receptor kinase 6 (Homo sapiens, UniProt P43250).
The target in experiment [8] is T3, ATP-dependent RNA helicase DHX30 (Homo sapiens, UniProt Q7L2E3).
T3 sequence (Q7L2E3 whole entry): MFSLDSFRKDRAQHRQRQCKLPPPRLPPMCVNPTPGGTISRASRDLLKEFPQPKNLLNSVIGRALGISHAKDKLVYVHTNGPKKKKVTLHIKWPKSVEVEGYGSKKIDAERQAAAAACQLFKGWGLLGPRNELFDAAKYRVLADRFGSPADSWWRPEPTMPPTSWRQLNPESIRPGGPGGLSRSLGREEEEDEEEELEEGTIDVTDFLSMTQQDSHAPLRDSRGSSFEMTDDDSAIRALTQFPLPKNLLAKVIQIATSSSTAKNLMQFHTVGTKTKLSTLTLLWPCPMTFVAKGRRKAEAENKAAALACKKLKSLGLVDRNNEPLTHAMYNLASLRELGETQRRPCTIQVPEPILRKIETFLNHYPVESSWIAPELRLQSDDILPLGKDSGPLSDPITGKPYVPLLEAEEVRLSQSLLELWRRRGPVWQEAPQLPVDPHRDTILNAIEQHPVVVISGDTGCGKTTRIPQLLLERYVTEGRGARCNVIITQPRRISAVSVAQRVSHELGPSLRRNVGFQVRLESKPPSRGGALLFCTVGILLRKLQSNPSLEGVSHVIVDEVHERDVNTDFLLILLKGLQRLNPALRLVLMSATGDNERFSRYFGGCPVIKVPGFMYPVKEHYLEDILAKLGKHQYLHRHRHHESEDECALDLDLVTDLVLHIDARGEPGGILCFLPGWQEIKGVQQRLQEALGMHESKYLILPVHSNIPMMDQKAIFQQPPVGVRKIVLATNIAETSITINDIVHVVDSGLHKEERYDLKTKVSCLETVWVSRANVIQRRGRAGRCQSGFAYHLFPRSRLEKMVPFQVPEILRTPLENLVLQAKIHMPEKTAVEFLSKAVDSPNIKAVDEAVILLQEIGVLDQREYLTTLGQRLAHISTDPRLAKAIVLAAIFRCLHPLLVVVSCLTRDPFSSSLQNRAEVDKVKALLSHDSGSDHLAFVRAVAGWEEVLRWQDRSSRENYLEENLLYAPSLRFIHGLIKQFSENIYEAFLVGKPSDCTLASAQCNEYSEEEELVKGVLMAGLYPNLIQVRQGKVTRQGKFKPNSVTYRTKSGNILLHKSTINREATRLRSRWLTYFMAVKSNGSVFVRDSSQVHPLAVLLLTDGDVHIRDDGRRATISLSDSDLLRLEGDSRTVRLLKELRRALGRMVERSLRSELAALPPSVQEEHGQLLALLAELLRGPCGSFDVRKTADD

Experiment [9] deals with Serine/threonine-protein kinase pim-2 (Homo sapiens, UniProt Q9P1W9).
Further: in the data inactive means no Kd found up to 30 µM.

Sequence of Cyclin-dependent kinase 17 (Q00537 whole entry): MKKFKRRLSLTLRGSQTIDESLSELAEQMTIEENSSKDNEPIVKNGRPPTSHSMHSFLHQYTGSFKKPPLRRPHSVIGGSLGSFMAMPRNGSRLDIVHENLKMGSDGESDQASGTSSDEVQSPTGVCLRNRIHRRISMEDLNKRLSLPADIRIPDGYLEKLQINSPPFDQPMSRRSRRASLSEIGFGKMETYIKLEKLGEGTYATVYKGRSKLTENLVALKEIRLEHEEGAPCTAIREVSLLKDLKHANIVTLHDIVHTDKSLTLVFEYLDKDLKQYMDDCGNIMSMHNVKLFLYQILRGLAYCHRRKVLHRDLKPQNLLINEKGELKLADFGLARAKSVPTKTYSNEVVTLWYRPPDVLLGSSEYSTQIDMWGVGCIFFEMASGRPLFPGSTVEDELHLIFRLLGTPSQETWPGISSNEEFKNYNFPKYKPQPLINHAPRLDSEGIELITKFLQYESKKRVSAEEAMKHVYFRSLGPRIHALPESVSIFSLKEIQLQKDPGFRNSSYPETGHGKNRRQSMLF
Sequence of Serine/threonine-protein kinase pim-2 (Q9P1W9 whole entry): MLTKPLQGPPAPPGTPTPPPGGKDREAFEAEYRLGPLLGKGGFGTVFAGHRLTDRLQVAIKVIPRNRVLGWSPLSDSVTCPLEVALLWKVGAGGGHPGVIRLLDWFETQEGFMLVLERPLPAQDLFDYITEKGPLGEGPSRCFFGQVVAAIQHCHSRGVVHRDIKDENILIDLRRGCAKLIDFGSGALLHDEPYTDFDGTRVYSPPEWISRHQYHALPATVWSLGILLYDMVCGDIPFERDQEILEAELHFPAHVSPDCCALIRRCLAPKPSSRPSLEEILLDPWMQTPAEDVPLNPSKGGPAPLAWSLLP
Sequence of PAS domain-containing serine/threonine-protein kinase (Q96RG2 whole entry, the tested form may be a part): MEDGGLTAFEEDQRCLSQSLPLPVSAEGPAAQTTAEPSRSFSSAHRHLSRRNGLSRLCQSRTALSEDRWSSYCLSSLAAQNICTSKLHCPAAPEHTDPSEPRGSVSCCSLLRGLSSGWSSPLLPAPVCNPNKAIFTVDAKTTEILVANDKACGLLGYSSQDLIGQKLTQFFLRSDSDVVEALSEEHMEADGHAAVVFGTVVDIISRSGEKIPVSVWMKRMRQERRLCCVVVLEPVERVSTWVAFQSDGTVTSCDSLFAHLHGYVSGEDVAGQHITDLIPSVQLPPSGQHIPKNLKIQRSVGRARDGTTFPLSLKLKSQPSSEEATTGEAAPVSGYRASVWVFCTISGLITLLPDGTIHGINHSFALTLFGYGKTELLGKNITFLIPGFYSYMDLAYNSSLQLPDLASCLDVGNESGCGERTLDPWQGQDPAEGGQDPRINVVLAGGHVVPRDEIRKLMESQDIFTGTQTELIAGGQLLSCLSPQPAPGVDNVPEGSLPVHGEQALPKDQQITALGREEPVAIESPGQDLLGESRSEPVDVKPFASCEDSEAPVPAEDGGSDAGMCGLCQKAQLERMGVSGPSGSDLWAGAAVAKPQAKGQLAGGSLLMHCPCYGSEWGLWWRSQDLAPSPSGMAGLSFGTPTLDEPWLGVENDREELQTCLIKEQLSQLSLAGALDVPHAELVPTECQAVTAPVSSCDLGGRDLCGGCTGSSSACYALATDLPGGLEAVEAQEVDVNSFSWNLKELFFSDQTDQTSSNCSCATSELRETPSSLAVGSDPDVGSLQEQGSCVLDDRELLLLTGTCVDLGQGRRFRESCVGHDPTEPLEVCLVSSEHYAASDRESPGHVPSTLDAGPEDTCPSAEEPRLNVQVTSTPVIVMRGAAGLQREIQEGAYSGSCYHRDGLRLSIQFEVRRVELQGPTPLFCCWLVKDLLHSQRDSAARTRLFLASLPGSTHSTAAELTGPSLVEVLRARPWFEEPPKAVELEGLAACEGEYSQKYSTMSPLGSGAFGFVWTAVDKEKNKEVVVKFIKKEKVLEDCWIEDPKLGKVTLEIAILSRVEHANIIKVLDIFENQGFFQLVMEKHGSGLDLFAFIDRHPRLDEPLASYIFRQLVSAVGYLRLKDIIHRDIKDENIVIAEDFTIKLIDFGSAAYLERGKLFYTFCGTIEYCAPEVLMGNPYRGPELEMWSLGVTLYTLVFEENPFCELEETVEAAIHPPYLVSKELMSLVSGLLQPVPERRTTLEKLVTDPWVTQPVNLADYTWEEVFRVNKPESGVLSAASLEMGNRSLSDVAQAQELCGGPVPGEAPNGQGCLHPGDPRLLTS
Sequence of Dual specificity testis-specific protein kinase 2 (Q96S53 whole entry): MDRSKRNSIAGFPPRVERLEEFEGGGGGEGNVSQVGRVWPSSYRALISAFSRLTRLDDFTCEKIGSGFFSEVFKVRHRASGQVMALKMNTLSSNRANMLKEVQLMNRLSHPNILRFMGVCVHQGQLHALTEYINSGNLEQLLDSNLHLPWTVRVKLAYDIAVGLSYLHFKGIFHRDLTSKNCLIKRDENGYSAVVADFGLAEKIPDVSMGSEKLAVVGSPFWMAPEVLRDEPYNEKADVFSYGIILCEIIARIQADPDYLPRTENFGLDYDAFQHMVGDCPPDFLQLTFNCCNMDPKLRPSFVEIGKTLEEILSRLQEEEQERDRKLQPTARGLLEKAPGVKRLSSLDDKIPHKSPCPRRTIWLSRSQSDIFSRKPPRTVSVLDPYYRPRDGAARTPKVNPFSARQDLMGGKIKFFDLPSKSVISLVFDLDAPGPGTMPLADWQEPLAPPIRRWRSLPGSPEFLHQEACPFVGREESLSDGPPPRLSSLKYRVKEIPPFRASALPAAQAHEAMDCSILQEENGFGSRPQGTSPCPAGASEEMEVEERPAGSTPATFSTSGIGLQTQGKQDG
Sequence of G protein-coupled receptor kinase 6 (P43250 whole entry): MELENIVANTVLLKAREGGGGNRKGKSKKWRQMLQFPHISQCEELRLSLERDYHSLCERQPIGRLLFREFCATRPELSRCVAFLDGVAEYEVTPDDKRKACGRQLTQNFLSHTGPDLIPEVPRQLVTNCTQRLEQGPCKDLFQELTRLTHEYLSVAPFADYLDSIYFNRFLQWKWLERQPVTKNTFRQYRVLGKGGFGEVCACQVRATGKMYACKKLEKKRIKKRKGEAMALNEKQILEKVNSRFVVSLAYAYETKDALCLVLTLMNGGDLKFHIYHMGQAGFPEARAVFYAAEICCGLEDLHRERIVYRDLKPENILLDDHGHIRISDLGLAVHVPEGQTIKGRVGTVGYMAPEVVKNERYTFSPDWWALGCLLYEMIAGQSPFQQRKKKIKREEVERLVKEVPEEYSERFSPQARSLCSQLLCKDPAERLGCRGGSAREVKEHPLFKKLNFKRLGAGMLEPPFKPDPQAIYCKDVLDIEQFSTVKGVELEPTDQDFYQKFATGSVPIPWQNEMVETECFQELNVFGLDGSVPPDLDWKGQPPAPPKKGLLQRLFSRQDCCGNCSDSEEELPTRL
Sequence of Proto-oncogene tyrosine-protein kinase receptor Ret (P07949 whole entry): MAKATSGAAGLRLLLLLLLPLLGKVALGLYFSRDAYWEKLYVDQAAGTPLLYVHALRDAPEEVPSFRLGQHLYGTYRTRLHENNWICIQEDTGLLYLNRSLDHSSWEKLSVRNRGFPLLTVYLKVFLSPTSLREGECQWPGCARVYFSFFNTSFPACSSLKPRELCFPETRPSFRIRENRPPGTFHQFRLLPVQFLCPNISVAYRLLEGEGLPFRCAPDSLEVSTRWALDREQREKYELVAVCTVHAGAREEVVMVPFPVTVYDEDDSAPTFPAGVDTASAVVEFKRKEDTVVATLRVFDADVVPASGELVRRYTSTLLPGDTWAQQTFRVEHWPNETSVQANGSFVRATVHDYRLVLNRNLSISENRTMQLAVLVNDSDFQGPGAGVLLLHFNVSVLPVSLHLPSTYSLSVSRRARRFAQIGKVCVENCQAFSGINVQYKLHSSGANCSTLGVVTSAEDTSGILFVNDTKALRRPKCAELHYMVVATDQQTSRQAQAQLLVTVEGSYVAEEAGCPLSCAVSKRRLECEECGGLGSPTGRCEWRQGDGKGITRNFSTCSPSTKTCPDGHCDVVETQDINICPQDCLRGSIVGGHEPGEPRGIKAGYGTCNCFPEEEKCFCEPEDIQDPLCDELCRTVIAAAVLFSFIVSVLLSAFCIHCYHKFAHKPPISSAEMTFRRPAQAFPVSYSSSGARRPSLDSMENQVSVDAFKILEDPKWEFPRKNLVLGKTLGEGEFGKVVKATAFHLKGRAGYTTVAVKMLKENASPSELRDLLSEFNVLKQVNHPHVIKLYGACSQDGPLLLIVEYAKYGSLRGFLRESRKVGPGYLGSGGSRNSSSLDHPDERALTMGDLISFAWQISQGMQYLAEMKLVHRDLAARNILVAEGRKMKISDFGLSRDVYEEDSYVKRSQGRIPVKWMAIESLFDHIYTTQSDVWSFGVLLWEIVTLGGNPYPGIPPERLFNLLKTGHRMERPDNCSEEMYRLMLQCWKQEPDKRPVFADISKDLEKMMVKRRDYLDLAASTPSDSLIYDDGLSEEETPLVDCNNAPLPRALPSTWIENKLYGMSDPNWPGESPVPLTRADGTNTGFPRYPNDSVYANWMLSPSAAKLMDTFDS

Consider `CC(C)Nc1cc(-c2c[nH]c(C(=O)N[C@H](CO)c3cccc(Cl)c3)c2)c(Cl)cn1` [ULIXERTINIB], for which the Kd in experiment [1], in experiment [2], in experiment [3], in experiment [4], in experiment [5] and in experiment [6] was > 30 µM (inactive) each time.

With `Cc1cn(-c2cc(NC(=O)c3ccc(C)c(Nc4nccc(-c5cccnc5)n4)c3)cc(C(F)(F)F)c2)cn1` [NILOTINIB], the Kd in experiment [7], in experiment [8], in [3], in [4] and in [6] was > 30 µM (inactive) each time.

On to `Nc1nc(N)c2nc(-c3cccc(O)c3)c(-c3cccc(O)c3)nc2n1` [TG100-115], for which the Kd in experiment [2], in experiment [7], in experiment [8] and in experiment [4] was > 30 µM (inactive) each time.

`CN1CCN(c2ccc3nc(-c4c(N)c5c(F)cccc5[nH]c4=O)[nH]c3c2)CC1` [DOVITINIB]: the Kd in experiment [7], in [8], in experiment [3] and in [4] was > 30 µM (inactive) throughout.

For `COc1cc(N2CCC(N3CCN(C)CC3)CC2)ccc1Nc1ncnc(Nc2ccccc2S(=O)(=O)C(C)C)n1` [ASP-3026], the Kd in experiment [9], in [1], in experiment [7] and in [5] was > 30 µM (inactive) in each case.

Regarding `CNC(=O)c1ccc(-c2cnc3ncc(Cc4ccc5ncccc5c4)n3n2)cc1F` [CAPMATINIB], the Kd in experiment [9], in experiment [1], in [8] and in experiment [5] was > 30 µM (inactive) each time.

Turning to `CNC(=O)c1ccc(C)c(-n2c(C)cc(OCc3ccc(F)cc3F)c(Br)c2=O)c1` [PH-797804], the Kd in experiment [1], in experiment [2], in experiment [8], in experiment [3] and in experiment [5] was > 30 µM (inactive) in each case.

As to `Cc1nc(N)sc1-c1ccnc(Nc2ccc(N3CCOCC3)cc2)n1` [CYC-116], the dissociation constant (Kd) in experiment [1] is 0.007 µM (active); in [3] it was > 30 µM (inactive); in experiment [4], > 30 µM (inactive); in [6], > 30 µM (inactive).

Consider `C[C@@H](Nc1cc(F)cc(F)c1)c1cc(C(=O)N(C)C)cc2c(=O)cc(N3CCOCC3)oc12` [AZD-8186], for which the Kd in experiment [1], in [2] and in [5] was > 30 µM (inactive) throughout.

As to `C[C@@H](c1ccc2nccn2c1)n1nnc2ncc(-c3cnn(C)c3)nc21` [SAVOLITINIB], the Kd in experiment [1], in experiment [2], in experiment [4], in [5] and in experiment [6] was > 30 µM (inactive) each time.

As to `CCn1c(-c2nonc2N)nc2c(C#CC(C)(C)O)ncc(OC[C@H]3CCCNC3)c21` [GSK-690693], the Kd in experiment [2] is > 30 µM (inactive); in experiment [3] it was 1.07 µM; in [6] it was > 30 µM (inactive).

On to `N[C@@H]1CCCN(c2c(/C=C3\SC(=O)NC3=O)cccc2-c2ccccc2)C1`, for which the Kd in [8], in experiment [5] and in experiment [6] was > 30 µM (inactive) in each case.

For `CCn1c(=O)c(-c2cc[nH]n2)cc2c(C)nc(N)nc21` [VOXTALISIB], the Kd in experiment [5] and in experiment [6] was > 30 µM (inactive) in each case.

Turning to `Cn1ncc(Cl)c1-c1cc(C(=O)N[C@H](CN)Cc2cccc(F)c2)sc1Cl` [AFURESERTIB], the Kd in experiment [9], in experiment [1], in experiment [8] and in experiment [5] was > 30 µM (inactive) in each case.

Take `CN1CCC(CNc2ccc3ncc(-c4cccc(OC(F)(F)F)c4)n3n2)CC1` [SGI-1776]: the Kd is > 30 µM (inactive) in [1]; > 30 µM (inactive) in experiment [2]; > 30 µM (inactive) in experiment [7]; > 30 µM (inactive) in experiment [3]; > 30 µM (inactive) in experiment [4]; 3.22 µM (active) in [5]. Further, the Kd in experiment [6] was > 30 µM (inactive).

For `CC[C@H](Nc1ncnc2[nH]cnc12)c1nc2cccc(F)c2c(=O)n1-c1ccccc1` [IDELALISIB], the Kd in experiment [1], in experiment [2], in experiment [7], in experiment [8], in experiment [3] and in experiment [4] was > 30 µM (inactive) each time. Also, the Kd in experiment [5] was > 30 µM (inactive).

For the compound `O=c1sn(-c2cccc3ccccc23)c(=O)n1Cc1ccccc1` [TIDEGLUSIB], the Kd in [1], in experiment [2], in experiment [7], in experiment [3] and in experiment [5] was > 30 µM (inactive) throughout.

Consider `O=C(c1ccc(F)c(F)c1Nc1ccc(I)cc1F)N1CC(O)([C@@H]2CCCCN2)C1` [COBIMETINIB], for which the Kd in [1], in experiment [2], in experiment [8], in [4] and in experiment [5] was > 30 µM (inactive) each time.

Turning to `C1=C/COCc2cc(ccc2OCCN2CCCC2)Nc2nccc(n2)-c2cccc(c2)COC/1` [PACRITINIB], the Kd in experiment [3] and in experiment [5] was > 30 µM (inactive) in each case.

`Cc1ccc(S(=O)(=O)Nc2nc3ccccc3nc2Nc2ccc3nsnc3c2)cc1`: the Kd in experiment [1], in experiment [2], in experiment [8], in experiment [3] and in [5] was > 30 µM (inactive) in each case.

Turning to `Cc1cc([C@@H](C)Nc2ccccc2C(=O)O)c2nc(N3CCOCC3)cc(=O)n2c1` [AZD-6482], the Kd in [1], in experiment [2], in [7], in experiment [8], in [3] and in [4] was > 30 µM (inactive) in each case. Also, the Kd in experiment [5] and in [6] was > 30 µM (inactive) throughout.

`CN1N=C(N)c2cn([C@@H]3O[C@H](COP(=O)(O)O)[C@@H](O)[C@H]3O)c3ncnc1c23` [TRICIRIBINE PHOSPHATE]: the Kd in experiment [7], in experiment [8], in experiment [5] and in experiment [6] was > 30 µM (inactive) throughout.
